*1 amine or outer side, *2 acyl side, *3 side chain or, on linkers, in order; H or OH if unused. Where a SMILES comes first, the peptide text is derived from it. Side-chain parts run from the residue outwards. [ ]: non-standard residue; d: D form. The star is where a group is joined. C20 diacid = O=C(O)CCCCCCCCCCCCCCCCCCC(=O)*; C18 diacid = O=C(O)CCCCCCCCCCCCCCCCC(=O)*; αMePhe(2-F) = C[C@](N)(Cc1ccccc1F)C(=O)O; γGlu = O=C(O)[C@H](CCC(=O)[*:2])N[*:1]; 4Pal = N[C@@H](Cc1ccncc1)C(=O)O; αMeL = CC(C)C[C@](C)(N)C(=O)O; Orn = NCCC[C@H](N)C(=O)O; AEEA = NCCOCCOCC(=O)O; Aib = CC(C)(N)C(=O)O
Legend:
human GcgR = biological target: T1, human GcgR (Homo sapiens, UniProt P47871); test: [125I]-Glucagon binding, SPA with WGA beads, 0.1% bacitracin; details: geometric mean, read-out: hGcgR Ki
T1 construct: expressed in transfected cells; crude membranes
Experimental: (§1) Stably transfected cell lines are prepared by subcloning receptor cDNA into a pcDNA3 expression plasmid and transfected into human embryonic kidney (HEK) 293 (hGcgR and hGLP-1R) or Chinese Hamster Ovary (CHO) (hGIPR) cells followed by selection with Geneticin (hGLP-1R and hGIPR) or hygromycin B (hGcgR).
(§2) Two methods are used for the preparation of crude cell membranes.
(§3) Method 1: Frozen cell pellets are lysed on ice in hypotonic buffer containing 50 mM Tris HCl, pH 7.5, and Roche Complete™ Protease Inhibitors with EDTA. The cell suspension is disrupted using a glass Potter-Elvehjem homogenizer fitted with a Teflon® pestle for 25 strokes. The homogenate is centrifuged at 4° C. at 1100× g for 10 minutes. The supernatant is collected and stored on ice while the pellets are resuspended in homogenization buffer and rehomogenized as described above. The homogenate is centrifuged at 1100× g for 10 minutes. The second supernatant is combined with the first supernatant and centrifuged at 35000× g for 1 hour at 4° C. The resulting membrane pellet is resuspended in homogenization buffer containing protease inhibitors at approximately 1 to 3 mg/mL, quick frozen in liquid nitrogen and stored as aliquots in a −80° C. freezer until use.
(§4) Method 2: Frozen cell pellets are lysed on ice in hypotonic buffer containing 50 mM Tris HCl, pH 7.5, 1 mM MgCl2, Roche Complete™ EDTA-free Protease Inhibitors and 25 units/mL DNAse I (Invitrogen). The cell suspension is disrupted using a glass Potter-Elvehjem homogenizer fitted with a Teflon® pestle for 20 to 25 strokes. The homogenate is centrifuged at 4° C. at 1800× g for 15 minutes. The supernatant is collected and stored on ice while the pellets are resuspended in homogenization buffer (without DNAse I) and rehomogenized as described above. The homogenate is centrifuged at 1800× g for 15 minutes. The second supernatant is combined with the first supernatant and centrifuged an additional time at 1800× g for 15 minutes. The overall supernatant is then centrifuged at 25000× g for 30 minutes at 4° C. The resulting membrane pellet is resuspended in homogenization buffer (without DNAse I) containing protease inhibitors at approximately 1 to 3 mg/mL and stored as aliquots in a −80° C. freezer until use.
The human Geg receptor binding assays are performed using a Scintillation Proximity Assay (SPA) format with wheat germ agglutinin (WGA) beads (Perkin Elmer). The binding buffer contains 25 mM 4-(2-hydroxyethyl)-1-piperazineethanesulfonic acid (HEPES), pH 7.4, 2.5 mM CaCl2), 1 mM MgCl2, 0.1% (w/v) bacitracin (Research Products), 0.003% (w/v) Polyoxyethylenesorbitan monolaurate (TWEEN®-20), and Roche Complete™ Protease Inhibitors without EDTA. Peptides and Gcg are thawed and 3-fold serially diluted in 100% DMSO (10 point concentration response curves). Next, 5 μL serially diluted compound or DMSO is transferred into Corning® 3632 clear bottom assay plates containing 45 μL assay binding buffer or unlabeled Gcg control (non-specific binding or NSB, at 1 μM final). […] Plates are sealed and mixed on a plate shaker (setting 6) for 1 minute and read with a PerkinElmer Trilux MicroBeta® scintillation counter after 12 hours of incubation/settling time at room temperature.
(§5) Data are analyzed using four-parameter (curve maximum, curve minimum, IC50, Hill slope) nonlinear regression routines (Genedata Screener, version 12.0.4, Genedata AG, Basal, Switzerland). […] Values for Ki are reported as the geometric mean, with error expressed as the standard error of the mean (SEM) and n is equal to the number of independent replicates (determined in assays performed on different days). […] SEM is only calculated when […] or greater. Means are expressed as geometric means with the standard error of the mean (SEM) and the number of replicates (n) indicated in parentheses.

human GIPR = biological target: T2, human GIPR (Homo sapiens, UniProt P48546); test: [125I]-GIP binding, SPA with WGA beads, 0.1% bacitracin; details: geometric mean, read-out: hGIPR Ki
T2 construct: expressed in transfected cells; crude membranes
T2 sequence (P48546 22-466): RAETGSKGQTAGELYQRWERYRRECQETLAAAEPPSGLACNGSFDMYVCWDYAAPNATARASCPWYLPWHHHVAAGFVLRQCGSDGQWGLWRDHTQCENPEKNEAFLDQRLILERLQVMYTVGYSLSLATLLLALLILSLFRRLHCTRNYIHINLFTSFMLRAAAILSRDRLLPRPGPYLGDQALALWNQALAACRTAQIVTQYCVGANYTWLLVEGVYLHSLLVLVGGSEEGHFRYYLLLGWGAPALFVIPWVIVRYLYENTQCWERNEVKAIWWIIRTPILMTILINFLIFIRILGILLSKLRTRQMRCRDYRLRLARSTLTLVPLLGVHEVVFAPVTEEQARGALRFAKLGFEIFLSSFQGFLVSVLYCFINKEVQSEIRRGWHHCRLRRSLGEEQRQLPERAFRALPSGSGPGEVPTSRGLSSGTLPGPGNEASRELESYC
Experimental: as §1, §2, §3, §4
The binding buffer contains 25 mM HEPES, pH 7.4, 2.5 mM CaCl2), 1 mM MgCl2, 0.1% (w/v) bacitracin, 0.003% (w/v) TWEEN®-20, and Roche Complete™ Protease Inhibitors without EDTA. […] Plates are sealed and mixed on a plate shaker (setting 6) for 1 minute and read with a PerkinElmer Trilux MicroBeta® scintillation counter after 2.5 to 12 hours of incubation/settling time at room temperature.
as §5

human GLP-1R = biological target: T3, human GLP-1R (Homo sapiens, UniProt P43220); test: [125I]-GLP-1 binding, SPA with WGA beads, 0.1% bacitracin; details: geometric mean, read-out: hGLP1R Ki
T3 construct: expressed in transfected cells; crude membranes
Experimental: as §1, §2, §3, §4
The binding buffer contains 25 mM HEPES, pH 7.4, 2.5 mM CaCl2), 1 mM MgCl2, 0.1% (w/v) bacitracin, 0.003% (w/v) TWEEN®-20, and Roche Complete™ Protease Inhibitors without EDTA.
as §5

T1 sequence (P47871 26-477): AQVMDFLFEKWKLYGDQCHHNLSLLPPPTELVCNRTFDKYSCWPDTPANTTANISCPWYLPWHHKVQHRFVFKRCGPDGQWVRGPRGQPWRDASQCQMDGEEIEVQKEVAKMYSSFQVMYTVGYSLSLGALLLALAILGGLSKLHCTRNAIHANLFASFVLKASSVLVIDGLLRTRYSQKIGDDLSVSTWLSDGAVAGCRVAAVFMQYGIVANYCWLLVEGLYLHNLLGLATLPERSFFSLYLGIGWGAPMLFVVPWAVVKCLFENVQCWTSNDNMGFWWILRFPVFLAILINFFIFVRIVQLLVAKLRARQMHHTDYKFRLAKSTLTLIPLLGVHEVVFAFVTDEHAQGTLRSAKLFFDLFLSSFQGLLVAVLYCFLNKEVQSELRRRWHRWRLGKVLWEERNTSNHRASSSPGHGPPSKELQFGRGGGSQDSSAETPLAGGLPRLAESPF
T3 sequence (P43220 24-463): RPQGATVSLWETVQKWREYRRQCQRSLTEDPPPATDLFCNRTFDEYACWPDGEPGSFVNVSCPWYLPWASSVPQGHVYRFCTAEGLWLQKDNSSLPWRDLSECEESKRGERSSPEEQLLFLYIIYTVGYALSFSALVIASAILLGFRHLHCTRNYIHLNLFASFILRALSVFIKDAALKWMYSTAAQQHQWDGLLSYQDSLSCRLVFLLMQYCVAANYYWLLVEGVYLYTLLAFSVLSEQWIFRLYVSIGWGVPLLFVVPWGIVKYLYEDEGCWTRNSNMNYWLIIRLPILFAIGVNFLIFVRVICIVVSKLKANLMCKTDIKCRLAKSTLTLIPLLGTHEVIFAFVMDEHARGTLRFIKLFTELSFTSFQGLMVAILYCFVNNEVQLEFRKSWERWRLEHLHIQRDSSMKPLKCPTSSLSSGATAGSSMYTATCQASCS

| Structure (SMILES) | Ki (human GcgR) | Ki (human GIPR) | Ki (human GLP-1R) |
| --- | --- | --- | --- |
| CC[C@H](C)[C@H](NC(=O)[C@H](CCCN)NC(=O)[C@H](CC(=O)O)NC(=O)[C@H](CC(C)C)NC(=O)[C@](C)(CC(C)C)NC(=O)[C@@H](NC(=O)[C@H](CO)NC(=O)[C@H](Cc1ccc(O)cc1)NC(=O)[C@H](CC(=O)O)NC(=O)[C@H](CO)NC(=O)[C@@H](NC(=O)[C@H](Cc1ccccc1)NC(=O)[C@@H](NC(=O)CNC(=O)[C@H](CCC(=O)O)NC(=O)C(C)(C)NC(=O)[C@@H](N)Cc1ccc(O)cc1)[C@@H](C)O)[C@@H](C)CC)[C@@H](C)CC)C(=O)N[C@@H](Cc1c[nH]cn1)C(=O)N[C@@H](CCC(N)=O)C(=O)NC(C)(C)C(=O)N[C@@H](CCC(=O)O)C(=O)N[C@@H](Cc1ccccc1)C(=O)N[C@H](C(=O)N[C@@H](CCC(=O)O)C(=O)N[C@@H](Cc1ccncc1)C(=O)N[C@@H](CCCCNC(=O)COCCOCCNC(=O)COCCOCCNC(=O)CC[C@H](NC(=O)CCCCCCCCCCCCCCCCCCC(=O)O)C(=O)O)C(=O)N[C@@H](CC(C)C)C(=O)N[C@@H](CCC(=O)O)C(=O)N[C@@H](C)C(=O)NCC(=O)N1CCC[C@H]1C(=O)N[C@@H](CO)C(=O)N[C@@H](CO)C(=O)NCC(=O)N[C@@H](C)C(=O)N1CCC[C@H]1C(=O)N1CCC[C@H]1C(=O)N1CCC[C@H]1C(=O)N[C@@H](CO)C(N)=O)C(C)C [Example 122] (H-Y[Aib]EGTFISDYSI[αMeL]LD[Orn]IHQ[Aib]EFVE[4Pal]K([AEEA-AEEA-γGlu-C20 diacid])LEAGPSSGAPPPS-NH2) | 957 nM | 0.0311 nM | > 913 nM |
| CC[C@H](C)[C@H](NC(=O)[C@H](CO)NC(=O)[C@H](Cc1ccc(O)cc1)NC(=O)[C@H](CC(=O)O)NC(=O)[C@H](CO)NC(=O)[C@@H](NC(=O)[C@](C)(Cc1ccccc1F)NC(=O)[C@@H](NC(=O)CNC(=O)[C@H](CCC(=O)O)NC(=O)[C@H](C)NC(=O)[C@@H](Cc1ccc(O)cc1)NC(C)=O)[C@@H](C)O)[C@@H](C)CC)C(=O)N[C@@H](C)C(=O)N[C@@H](CC(C)C)C(=O)N[C@@H](CC(=O)O)C(=O)N[C@@H](CCCCN)C(=O)N[C@@H](CCCCNC(=O)COCCOCCNC(=O)COCCOCCNC(=O)CC[C@H](NC(=O)CCCCCCCCCCCCCCCCC(=O)O)C(=O)O)C(=O)N[C@@H](Cc1c[nH]cn1)C(=O)N[C@@H](CCC(N)=O)C(=O)NC(C)(C)C(=O)N[C@@H](CCC(=O)O)C(=O)N[C@@H](Cc1ccccc1)C(=O)N[C@H](C(=O)N[C@@H](CC(N)=O)C(=O)N[C@@H](Cc1ccc(O)cc1)C(=O)N[C@@H](CC(C)C)C(=O)N[C@@H](CC(C)C)C(=O)N[C@@H](C)C(=O)NCC(=O)NCC(=O)N1CCC[C@H]1C(=O)N[C@@H](CO)C(=O)N[C@@H](CO)C(=O)NCC(=O)N[C@@H](C)C(=O)N1CCC[C@H]1C(=O)N1CCC[C@H]1C(=O)N1CCC[C@H]1C(=O)N[C@@H](CO)C(N)=O)C(C)C [Example 30] (Ac-[dY]AEGT[αMePhe(2-F)]ISDYSIALDKK([AEEA-AEEA-γGlu-C18 diacid])HQ[Aib]EFVNYLLAGGPSSGAPPPS-NH2) | 407 nM | 0.037 nM | 26.5 nM |
| CC[C@H](C)[C@H](NC(=O)[C@H](CO)NC(=O)[C@H](Cc1ccc(O)cc1)NC(=O)[C@H](CC(=O)O)NC(=O)[C@H](CO)NC(=O)[C@@H](NC(=O)[C@H](Cc1ccccc1)NC(=O)[C@@H](NC(=O)CNC(=O)[C@H](CCC(=O)O)NC(=O)[C@@H](C)NC(=O)[C@@H](N)Cc1ccc(O)cc1)[C@@H](C)O)[C@@H](C)CC)C(=O)N[C@@H](CC(C)C)C(=O)N[C@@H](CC(C)C)C(=O)N[C@@H](CC(=O)O)C(=O)N[C@@H](CCCCN)C(=O)N[C@@H](CCCCNC(=O)COCCOCCNC(=O)COCCOCCNC(=O)CC[C@H](NC(=O)CCCCCCCCCCCCCCCCC(=O)O)C(=O)O)C(=O)N[C@@H](C)C(=O)N[C@@H](CCC(N)=O)C(=O)NC(C)(C)C(=O)N[C@@H](CCC(=O)O)C(=O)N[C@@H](Cc1ccccc1)C(=O)N[C@H](C(=O)N[C@@H](CCC(N)=O)C(=O)N[C@@H](Cc1c[nH]c2ccccc12)C(=O)N[C@@H](CC(C)C)C(=O)N[C@@H](CC(C)C)C(=O)N[C@@H](C)C(=O)NCC(=O)NCC(=O)N1CCC[C@H]1C(=O)N[C@@H](CO)C(=O)N[C@@H](CO)C(=O)NCC(=O)N[C@@H](C)C(=O)N1CCC[C@H]1C(=O)N1CCC[C@H]1C(=O)N1CCC[C@H]1C(=O)N[C@@H](CO)C(N)=O)C(C)C [Example 27] (H-Y[dA]EGTFISDYSILLDKK([AEEA-AEEA-γGlu-C18 diacid])AQ[Aib]EFVQWLLAGGPSSGAPPPS-NH2) | 401 nM | 0.0354 nM | 23.2 nM |
| CC[C@H](C)[C@H](NC(=O)[C@H](CO)NC(=O)[C@H](Cc1ccc(O)cc1)NC(=O)[C@H](CC(=O)O)NC(=O)[C@H](CO)NC(=O)[C@@H](NC(=O)[C@H](Cc1ccccc1)NC(=O)[C@@H](NC(=O)CNC(=O)[C@H](CCC(=O)O)NC(=O)C(C)(C)NC(=O)[C@@H](N)Cc1ccc(O)cc1)[C@@H](C)O)[C@@H](C)CC)C(=O)N[C@@H](CC(C)C)C(=O)N[C@@H](CC(C)C)C(=O)N[C@@H](CC(=O)O)C(=O)N[C@@H](CCCCN)C(=O)N[C@@H](CCCCNC(=O)COCCOCCNC(=O)COCCOCCNC(=O)CC[C@H](NC(=O)CCCCCCCCCCCCCCCCC(=O)O)C(=O)O)C(=O)N[C@@H](Cc1c[nH]cn1)C(=O)N[C@@H](CCC(N)=O)C(=O)NC(C)(C)C(=O)N[C@@H](CC(=O)O)C(=O)N[C@@H](Cc1ccccc1)C(=O)N[C@H](C(=O)N[C@@H](CCC(=O)O)C(=O)N[C@@H](Cc1ccncc1)C(=O)N[C@@H](CC(C)C)C(=O)N[C@@H](CC(C)C)C(=O)N[C@@H](C)C(=O)NCC(=O)NCC(=O)N1CCC[C@H]1C(=O)N[C@@H](CO)C(=O)N[C@@H](CO)C(=O)NCC(=O)N[C@@H](C)C(=O)N1CCC[C@H]1C(=O)N1CCC[C@H]1C(=O)N1CCC[C@H]1C(=O)N[C@@H](CO)C(N)=O)C(C)C [Example 22] | > 1380 nM | 0.219 nM | 388 nM |

— patent publication US12723063B2, “GIPR-agonist compounds” (Eli Lilly and Company, priority 2019, dated 2026)
